Reference: PMC10062662, “Quantitative determination of lurbinectedin, its unbound fraction and its metabolites in human plasma utilizing ultra-performance LC–MS/MS” (PLOS ONE, 2023)
Where two headings read alike, the source gives them in different places.

Legend:
plasma protein = assay: Plasma protein binding by rapid equilibrium dialysis (RED) in K3-EDTA plasma from donors; type: in vitro ADME, human; details: for percent bound: 100 ng/mL, RED 8 hours 37°C
Description: (§1) RED was considered the best alternative over other methods (e.g., ultrafiltration) to separate lurbinectedin unbound fraction (fu), due to high non-specific binding (NSB) of lurbinectedin leading to adsorption. The RED device consists of a cylinder of dialysis membrane with an 8-kDa molecular weight cut-off held in place by a polytetrafluoroethylene support; the dialysis membrane tube is closed at one end. The RED devices are disposable and used in a reusable polytetrafluoroethylene support plate (holds a maximum of 48 devices). The design of the plate and device allows for PBS to be added in such a way that it can circulate freely around the cylinder of dialysis membrane. In use, spiked plasma (400 μL) is added to the dialysis membrane cylinder part of the RED device, and PBS (600 μL) is added to the other side. The plate, device and volumes used result in a consistent fluid level across both sides of the membrane, preventing mass movement of fluid across the membrane due to hydrostatic pressure.
(§2) Each measurement was performed using three RED devices; the devices were placed in the plate and spiked plasma and PBS were added. The plate was then mixed on an incubating microplate shaker at 100 rpm and 37°C for 8 hours.
(§3) Both the plasma (diluted 1 in 20 with plasma:PBS 1:1, v:v) and PBS (diluted with plasma 1:1, v:v) were assayed in triplicate using the extraction and UPLC-MS/MS method described above. Transfer of the PBS from the incubation plate into an equivalent volume of plasma prior to assay was performed using pipette tips that had been pre-treated with Sigmacote®.
(§4) In vitro PPB experiments to determine lurbinectedin fu were conducted with RED in K3-EDTA plasma from donors. Fresh plasma (not previously frozen), previously frozen plasma (fresh plasma subjected to four cycles of freeze [at -80°C ±10°C for ≥12 hours] then thawed [at room temperature for 2 hours]) and diluted fresh plasma (not previously frozen, diluted 1:1 with PBS prior to incubation) were spiked to 100 ng/mL with lurbinectedin and then equilibrated with PBS in RED devices for 8 hours at 37°C and assayed.
(§5) In addition, the stability of lurbinectedin PPB in fresh plasma following storage at -80°C ±10°C was evaluated; aliquots of fresh plasma samples (not previously frozen) from three donors were spiked with 500 ng/mL of lurbinectedin. The samples were stored for at least 21, 30, 62 and 91 days prior to analysis; the day 0 aliquots were not frozen before analysis. The spiked aliquots from the three donors were equilibrated with PBS in RED devices in triplicate. The samples generated in the RED devices were analyzed in triplicate.

[1] = as above; type: in vitro ADME, human; details: human; for fraction unbound at 8 h, 100 ng/mL: RED 8 hours 37°C; for fraction unbound at 8 h, 100 ng/mL / fraction unbound at 8 h, 500 ng/mL: read-out: mean percent unbound
Description: as §1, §2, §3, §4, §5

[2] = Stability in human K3-EDTA plasma under different test conditions; type: in vitro ADME
Protocol: Likewise, a wide range of long-term stability tests reflecting the sort of real-world storage issues that can occur in hospital-based clinical studies (e.g., short-term storage at -20°C before transfer to -80°C, availability of -60°C but not -80°C), was evaluated to ensure plasma samples are analyzed before degradation can occur. Therefore, the following plasma stability tests were performed: room temperature, freeze thaw (one cycle consisted of 2 hours at room temperature followed by freezing for at least 12 hours at -80°C ± 10°C) and long-term (at -20°C ± 5°C, -60°C ± 10°C and -80°C ± 10°C). For each stability test, two concentrations (LQC and HQC) and six replicates per level were analyzed. For acceptance criteria, the precision (%CV) was ≤15% and the bias when compared with the nominal concentration was ±15%. […]

[3] = Non-specific binding in the absence of plasma proteins (RED method development); type: physicochemical; details: RED devices
Description: To counteract the NSB, Sigmacote®-treated pipette tips were used.

[4] = 4 freeze-thaw cycles, nom. conc. 0.3 ng/mL
[5] = 4 freeze-thaw cycles, nom. conc. 40 ng/mL
[6] = 37°C, 8 hours, nom. conc. 0.3 ng/mL
[7] = 37°C, 8 hours, nom. conc. 40 ng/mL
[8] = -20°C ±5°C, 23 days, nom. conc. 0.3 ng/mL
[9] = -20°C ±5°C, 23 days, nom. conc. 40 ng/mL
[10] = -60°C ±10°C, 245 days, nom. conc. 0.3 ng/mL
[11] = -60°C ±10°C, 245 days, nom. conc. 40 ng/mL
[12] = -80°C ±10°C, 853 days, nom. conc. 0.3 ng/mL
[13] = -80°C ±10°C, 853 days, nom. conc. 40 ng/mL
[14] = Ambient, 16.5 hours, nom. conc. 0.3 ng/mL
[15] = Ambient, 16.5 hours, nom. conc. 40 ng/mL

In the case of `COc1ccc2[nH]c3c(c2c1)CCN[C@]31CS[C@@H]2c3c(OC(C)=O)c(C)c4c(c3[C@H](COC1=O)N1[C@@H]2[C@H]2c3c(cc(C)c(OC)c3O)C[C@@H]([C@@H]1O)N2C)OCO4` [Lurbinectedin], the percent bound (plasma protein; diluted fresh plasma (1:1 with PBS)) is reported as 99.3%, the percent bound (plasma protein; fresh plasma (not previously frozen)) is reported as 99.6% and the fraction unbound at 8 h, 500 ng/mL (plasma protein; human, K3-EDTA plasma (fresh, from three donors), following storage at -80°C ±10°C for ≥91 days, read-out: PPB) is reported as less than 0.01. The percent bound (plasma protein; previously frozen plasma (four freeze-thaw cycles)) was 99.6%, the “stability of PPB in fresh plasma following storage” value (plasma protein; storage at -80°C ±10°C, three donors) was no less than 91 days and the fraction unbound at 8 h, 100 ng/mL ([1]; fresh K3-EDTA plasma diluted 1:1 with PBS, diluted fresh plasma (1:1 with PBS)) was 0.00668. For the same compound, the fraction unbound at 8 h, 500 ng/mL ([1]; fresh K3-EDTA plasma from three donors (not frozen), fresh plasma from three donors, day 0 (not frozen)) was 0.00151 to 0.00335, the fraction unbound at 8 h ([1]; plasma, human plasma, RED (abstract)) was 0.004 and the fraction unbound at 8 h, 100 ng/mL ([1]; previously frozen K3-EDTA plasma (four freeze-thaw cycles), previously frozen plasma (four freeze-thaw cycles)) was 0.00443. The fraction unbound at 8 h, 500 ng/mL ([1]; three donors, day 21 after storage at -80°C ±10°C) was 0.00206 to 0.00319, the fraction unbound at 8 h, 500 ng/mL ([1]; three donors, day 30 after storage at -80°C ±10°C) was 0.00168 to 0.00266 and the fraction unbound at 8 h, 500 ng/mL ([1]; three donors, day 62 after storage at -80°C ±10°C) was 0.00196 to 0.00286. For the same compound, the fraction unbound at 8 h, 500 ng/mL ([1]; three donors, day 91 after storage at -80°C ±10°C) was 0.00159 to 0.00213, the Bias [2, 4] was -4% and the Measured conc. [2, 4] was 0.289 ng/mL. The Bias [2, 5] was -5%, the Measured conc. [2, 5] was 38.0 ng/mL and the Bias [2, 6] was -2%. For the same compound, the Measured conc. [2, 6] was 0.293 ng/mL, the Bias [2, 7] was 1% and the Measured conc. [2, 7] was 40.2 ng/mL. It also gave a Bias [2, 8] of -10%, a Measured conc. [2, 8] of 0.271 ng/mL and a Bias [2, 9] of -9%. It also gave a Measured conc. [2, 9] of 36.2 ng/mL, a Bias [2, 10] of -5% and a Measured conc. [2, 10] of 0.285 ng/mL. For the same compound, the Bias [2, 11] was -10%, the Measured conc. [2, 11] was 36.1 ng/mL and the Bias [2, 12] was -10%. It also gave a Measured conc. [2, 12] of 0.269 ng/mL, a Bias [2, 13] of -9% and a Measured conc. [2, 13] of 36.3 ng/mL. For the same compound, the Bias [2, 14] was -8%, the Measured conc. [2, 14] was 0.276 ng/mL and the Bias [2, 15] was 3%. The Measured conc. [2, 15] was 41.0 ng/mL and the “non-specific binding (NSB)” value [3] was “very high levels of NSB”.
